Data from publication PMC10443802, “Targeting a xenobiotic transporter to ameliorate vincristine-induced sensory neuropathy” (JCI Insight, 2023).
Values joined by “and” are separate entries in the source; they are usually repeats but may differ in a detail not shown here. Equal entries are not always repeated.

Tests used:
MOLT4 = experiment: Cytotoxicity of vincristine with or without nilotinib, MTT assay, MOLT4; format: cell-based, human; settings: vincristine alone, individual replicates
hNPT1 = hNPT1 (Homo sapiens, UniProt Q14916); experiment: Vincristine uptake screen, HeLa cells overexpressing hNPT1; format: in vitro ADME
Description: (§1) Relative uptake is expressed as percentage change compared with empty vector controls (n = 4–14 per group). […] Human OATP1B1 and OATP1B3 transporter–overexpressed cells were used as positive controls; empty vector controls were used as the negative control. […] Mechanical allodynia (C), thermal hyperalgesia (D), and sciatic nerve maximal action potential amplitudes (E) are expressed as percentage change relative to baseline values (n = 6–8 per group). Statistical analysis was performed using a 2-way ANOVA with Bonferroni’s post hoc test. **P < 0.01, ***P < 0.001, ****P < 0.0001, compared with baseline values. […] Data are shown as mean ± SEM. […]
(§2) transfected with transporters of interest, including hOAT1, hOAT3, hOAT4, hOATP1A2, hOATP3A1, hOATP4A1, hOATP5A1, hOATP1C1, hOATP1B1, hOATP1B3, hOATP2B1, hOCT1, hOCT2, hOCTN1, hOCTN2, hASBT, hNTCP, hNPT1, hMATE1, hOSTα/β, hPEPT1, hPEPT2, rOatp1a1, rOatp1a4, rOatp1a5, rOatp1b2, rNtcp, rAsbt, rOat1, and rOct1. Cells were transfected with expression plasmid or vector control lacking any insert using Lipofectin reagent (Invitrogen). Sixteen hours thereafter, cells were washed with transport media (OPTIMEM, Invitrogen) and treated with radiolabeled drug. […] The cellular radioactivity was quantified by liquid scintillation counting as described above. […]

hOATP1A2 = hOATP1A2 (Homo sapiens, UniProt P46721); experiment: Vincristine uptake screen, HeLa cells overexpressing hOATP1A2; format: in vitro ADME
Description: as §1
as §2, with “(Invitrogen).” for “(Invitrogen). Sixteen hours thereafter, cells were washed with transport media (OPTIMEM, Invitrogen) and treated with radiolabeled drug.”
Samples were analyzed using real-time quantitative PCR and Taqman Probes (Applied Biosystems). The relative gene expression was determined using the ΔΔCt method, and normalized to the mouse or human housekeeping gene, GAPDH. […]

rOATP1A5 = rOATP1A5 (Rattus norvegicus, UniProt O88397); experiment: Vincristine uptake screen, HeLa cells overexpressing rOATP1A5; format: in vitro ADME
Description: as §1, §2

hOATP5A1 = hOATP5A1 (Homo sapiens, UniProt Q9H2Y9); experiment: Vincristine uptake screen, HeLa cells overexpressing hOATP5A1; format: in vitro ADME
Description: as §1, §2

L1210 = settings: vincristine 1 μM, 30 min, nilotinib 10 μM
Description: (A) Gene expression of the OATP1B2 gene in L1210 and P388D1 murine leukemia cells
normalized to total protein levels. All data presented represent the mean (bars) ± SEM (error bars).

hOATP1B3 = biological target: T1, hOATP1B3 (Homo sapiens, UniProt Q9NPD5); experiment: Inhibition of vincristine uptake in HEK293 cells overexpressing hOATP1B3; settings: inhibitor 15 min pre-treatment
T1 sequence (Q9NPD5 1-702): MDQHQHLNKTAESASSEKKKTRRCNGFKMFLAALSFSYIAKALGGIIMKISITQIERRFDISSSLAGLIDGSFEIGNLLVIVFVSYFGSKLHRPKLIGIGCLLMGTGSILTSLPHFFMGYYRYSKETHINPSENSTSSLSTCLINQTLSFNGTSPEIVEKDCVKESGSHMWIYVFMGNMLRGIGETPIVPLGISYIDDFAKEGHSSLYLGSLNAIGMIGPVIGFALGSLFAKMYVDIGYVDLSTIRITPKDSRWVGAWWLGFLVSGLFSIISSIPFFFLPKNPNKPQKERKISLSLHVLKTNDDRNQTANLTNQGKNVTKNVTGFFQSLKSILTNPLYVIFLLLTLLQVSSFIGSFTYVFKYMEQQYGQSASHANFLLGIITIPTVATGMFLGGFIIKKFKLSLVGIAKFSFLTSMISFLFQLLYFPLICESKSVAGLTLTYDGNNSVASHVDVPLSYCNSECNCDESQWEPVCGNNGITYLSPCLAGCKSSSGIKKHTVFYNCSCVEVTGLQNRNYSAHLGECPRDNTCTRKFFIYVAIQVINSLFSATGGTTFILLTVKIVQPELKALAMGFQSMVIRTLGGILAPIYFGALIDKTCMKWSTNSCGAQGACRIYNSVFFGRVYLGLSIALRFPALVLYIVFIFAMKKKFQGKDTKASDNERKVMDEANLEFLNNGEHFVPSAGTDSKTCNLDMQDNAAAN

hOATP1A2, sequence (P46721 whole entry): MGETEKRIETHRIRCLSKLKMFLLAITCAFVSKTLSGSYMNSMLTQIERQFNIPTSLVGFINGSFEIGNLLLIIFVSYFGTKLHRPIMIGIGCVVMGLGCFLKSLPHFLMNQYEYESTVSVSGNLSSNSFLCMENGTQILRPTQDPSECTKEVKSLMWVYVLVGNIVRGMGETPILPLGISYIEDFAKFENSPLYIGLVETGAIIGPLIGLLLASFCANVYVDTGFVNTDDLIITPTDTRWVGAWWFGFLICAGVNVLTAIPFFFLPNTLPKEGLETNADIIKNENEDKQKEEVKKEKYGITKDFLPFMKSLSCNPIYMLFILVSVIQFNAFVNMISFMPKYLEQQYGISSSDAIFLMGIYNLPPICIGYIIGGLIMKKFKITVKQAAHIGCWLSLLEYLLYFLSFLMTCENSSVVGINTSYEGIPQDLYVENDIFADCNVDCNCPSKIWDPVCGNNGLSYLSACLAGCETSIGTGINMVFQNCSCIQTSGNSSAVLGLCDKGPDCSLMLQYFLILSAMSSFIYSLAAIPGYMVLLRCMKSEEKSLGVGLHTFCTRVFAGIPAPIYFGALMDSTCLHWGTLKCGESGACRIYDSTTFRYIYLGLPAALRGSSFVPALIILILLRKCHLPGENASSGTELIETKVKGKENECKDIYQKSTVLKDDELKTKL
rOATP1A5, sequence (O88397 whole entry): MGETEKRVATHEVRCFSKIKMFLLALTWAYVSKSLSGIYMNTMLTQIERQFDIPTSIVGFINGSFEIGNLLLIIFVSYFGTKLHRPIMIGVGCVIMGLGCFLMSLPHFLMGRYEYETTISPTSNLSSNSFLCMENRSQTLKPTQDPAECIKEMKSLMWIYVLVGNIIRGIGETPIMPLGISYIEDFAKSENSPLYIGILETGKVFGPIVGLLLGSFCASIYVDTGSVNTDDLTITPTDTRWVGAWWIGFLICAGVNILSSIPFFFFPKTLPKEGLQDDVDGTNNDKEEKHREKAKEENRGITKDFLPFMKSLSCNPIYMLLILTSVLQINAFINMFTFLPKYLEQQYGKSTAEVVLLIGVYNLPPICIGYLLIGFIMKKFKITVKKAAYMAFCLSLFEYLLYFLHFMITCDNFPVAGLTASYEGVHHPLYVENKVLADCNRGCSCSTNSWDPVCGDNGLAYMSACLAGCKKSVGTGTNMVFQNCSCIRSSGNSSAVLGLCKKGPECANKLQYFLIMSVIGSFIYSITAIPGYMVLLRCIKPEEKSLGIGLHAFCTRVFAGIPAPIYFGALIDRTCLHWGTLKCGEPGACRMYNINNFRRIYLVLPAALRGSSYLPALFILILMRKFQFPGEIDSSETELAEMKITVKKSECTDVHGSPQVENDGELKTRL
hNPT1, sequence (Q14916 whole entry): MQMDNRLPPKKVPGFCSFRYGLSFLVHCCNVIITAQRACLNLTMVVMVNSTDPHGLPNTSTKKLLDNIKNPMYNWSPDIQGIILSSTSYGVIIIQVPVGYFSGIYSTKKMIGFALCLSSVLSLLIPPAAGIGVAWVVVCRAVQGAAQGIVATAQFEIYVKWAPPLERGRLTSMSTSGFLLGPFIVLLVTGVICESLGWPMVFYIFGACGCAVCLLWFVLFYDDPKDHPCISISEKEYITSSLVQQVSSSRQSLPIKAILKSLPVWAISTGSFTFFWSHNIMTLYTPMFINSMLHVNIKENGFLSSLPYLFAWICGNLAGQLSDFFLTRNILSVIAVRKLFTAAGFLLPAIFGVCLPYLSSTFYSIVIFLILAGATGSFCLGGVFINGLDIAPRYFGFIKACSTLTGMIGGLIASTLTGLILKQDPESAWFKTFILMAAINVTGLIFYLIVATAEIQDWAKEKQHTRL
hOATP5A1, sequence (Q9H2Y9 whole entry): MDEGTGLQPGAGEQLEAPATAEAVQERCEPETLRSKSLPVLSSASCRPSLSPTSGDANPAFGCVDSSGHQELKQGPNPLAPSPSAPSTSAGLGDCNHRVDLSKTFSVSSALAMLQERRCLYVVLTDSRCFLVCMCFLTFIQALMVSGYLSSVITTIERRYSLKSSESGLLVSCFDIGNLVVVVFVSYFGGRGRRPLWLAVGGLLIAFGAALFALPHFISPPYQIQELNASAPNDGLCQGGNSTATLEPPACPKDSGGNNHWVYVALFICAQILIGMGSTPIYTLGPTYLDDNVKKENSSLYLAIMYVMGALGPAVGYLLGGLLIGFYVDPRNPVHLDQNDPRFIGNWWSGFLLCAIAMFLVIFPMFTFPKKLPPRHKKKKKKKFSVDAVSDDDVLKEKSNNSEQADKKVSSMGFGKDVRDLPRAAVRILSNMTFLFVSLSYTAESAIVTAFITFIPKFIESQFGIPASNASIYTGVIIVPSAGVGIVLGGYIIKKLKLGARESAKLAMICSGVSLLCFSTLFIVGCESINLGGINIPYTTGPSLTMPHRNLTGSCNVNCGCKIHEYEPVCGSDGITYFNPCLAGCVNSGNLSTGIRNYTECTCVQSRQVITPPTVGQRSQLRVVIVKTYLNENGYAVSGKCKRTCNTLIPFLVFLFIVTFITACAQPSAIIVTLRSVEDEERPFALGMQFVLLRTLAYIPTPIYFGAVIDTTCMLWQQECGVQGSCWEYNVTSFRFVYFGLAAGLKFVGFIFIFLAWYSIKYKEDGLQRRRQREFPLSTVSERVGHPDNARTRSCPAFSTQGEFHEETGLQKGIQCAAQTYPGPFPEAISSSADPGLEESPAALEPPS

Compound	IC50 (MOLT4; Homo sapiens, MOLT-4, MOLT4 cells) [nM]	IC50 (MOLT4; MOLT4 cells)	Vincristine uptake (% of vector control) (hNPT1)	Vincristine uptake (% of vector control) (hOATP1A2)	Vincristine uptake (% of vector control) (rOATP1A5)	Vincristine uptake (% of vector control) (hOATP5A1)	Influence on uptake of vincristine (L1210)	Vincristine uptake (% of vehicle) (hOATP1B3)
CC[C@]1(O)C[C@H]2CN(CCc3c([nH]c4ccccc34)[C@@](C(=O)OC)(c3cc4c(cc3OC)N(C=O)[C@H]3[C@@](O)(C(=O)OC)[C@H](OC(C)=O)[C@]5(CC)C=CCN6CC[C@]43[C@@H]65)C2)C1 [Vincristine, vincristine]	6.88	6.2 nM and 9.07 nM and 9.04 nM and 7.56 nM and 10.2 nM and 7.73 nM and 7.86 nM and 6.95 nM	120.00 % of vector control and 91.00 % of vector control and 99.00 % of vector control and 72.00 % of vector control and 100.00 % of vector control and 104.00 % of vector control and 113.00 % of vector control	186.00 % of vector control and 176.00 % of vector control and 142.00 % of vector control and 167.00 % of vector control and 183.00 % of vector control and 171.00 % of vector control and 148.00 % of vector control and 164.00 % of vector control	107.00 % of vector control and 77.00 % of vector control and 126.00 % of vector control and 95.00 % of vector control and 111.00 % of vector control and 145.00 % of vector control and 98.00 % of vector control	109.00 % of vector control and 94.00 % of vector control and 90.00 % of vector control and 76.00 % of vector control and 77.00 % of vector control and 86.00 % of vector control and 80.00 % of vector control and 85.00 % of vector control		
Cc1cn(-c2cc(NC(=O)c3ccc(C)c(Nc4nccc(-c5cccnc5)n4)c3)cc(C(F)(F)F)c2)cn1 [Nilotinib, nilotinib]							did not influence the uptake of vincristine	56.9618 % of vehicle and 79.3107 % of vehicle and 46.7964 % of vehicle and 63.7354 % of vehicle and 65.1694 % of vehicle and 69.9849 % of vehicle
